In ChEMBL document CHEMBL4419120, “Bitter taste receptors” (2015):

Tests used:
Assay type in all cases: functional, cell-based
[1] = target: T1, Taste receptor type 2 member 46 (Homo sapiens) (UniProt P59540); test: Activity at human TAS2R46 expressed in HEK-293T-Galpha16-gustducin44 cells assessed as threshold concentration of compound at which point receptor detects compounds by measuring calcium response by FLIPR assay
T1 sequence (whole entry): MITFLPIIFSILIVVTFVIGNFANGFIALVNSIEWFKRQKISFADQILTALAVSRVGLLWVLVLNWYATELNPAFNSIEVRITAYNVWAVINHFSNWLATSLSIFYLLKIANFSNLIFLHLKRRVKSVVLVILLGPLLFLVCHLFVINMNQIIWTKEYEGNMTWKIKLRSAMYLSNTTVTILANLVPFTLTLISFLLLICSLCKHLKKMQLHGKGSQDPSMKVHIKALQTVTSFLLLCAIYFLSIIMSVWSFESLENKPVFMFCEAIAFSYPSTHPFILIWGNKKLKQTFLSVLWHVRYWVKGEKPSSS

[2] = target: T2, Taste receptor type 2 member 45 (Homo sapiens) (UniProt P59539); test: Activity at human TAS2R45 expressed in HEK-293T-Galpha16-gustducin44 cells assessed as threshold concentration of compound at which point receptor detects compounds by measuring calcium response by FLIPR assay
T2 sequence (whole entry): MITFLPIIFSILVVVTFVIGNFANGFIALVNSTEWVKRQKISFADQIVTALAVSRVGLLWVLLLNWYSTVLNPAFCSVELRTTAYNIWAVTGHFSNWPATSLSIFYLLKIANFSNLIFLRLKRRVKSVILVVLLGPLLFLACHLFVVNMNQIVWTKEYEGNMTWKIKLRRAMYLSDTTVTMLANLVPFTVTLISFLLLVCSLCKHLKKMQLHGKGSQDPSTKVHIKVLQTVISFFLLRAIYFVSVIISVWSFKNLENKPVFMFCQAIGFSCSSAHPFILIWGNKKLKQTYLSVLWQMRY

[3] = target: T3, Taste receptor type 2 member 10 (Homo sapiens) (UniProt Q9NYW0); test: Activity at human TAS2R10 expressed in HEK-293T-Galpha16-gustducin44 cells assessed as threshold concentration of compound at which point receptor detects compounds by measuring calcium response by FLIPR assay
T3 sequence (whole entry): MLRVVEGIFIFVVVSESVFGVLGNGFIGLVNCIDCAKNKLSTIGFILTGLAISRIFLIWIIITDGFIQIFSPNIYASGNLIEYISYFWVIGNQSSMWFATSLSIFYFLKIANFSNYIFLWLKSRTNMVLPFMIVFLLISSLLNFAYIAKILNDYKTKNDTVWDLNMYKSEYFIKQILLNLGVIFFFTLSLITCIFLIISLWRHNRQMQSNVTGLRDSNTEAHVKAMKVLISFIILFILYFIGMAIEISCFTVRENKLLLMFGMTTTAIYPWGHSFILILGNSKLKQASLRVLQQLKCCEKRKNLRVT

[4] = target: T4, Taste receptor type 2 member 19 (Homo sapiens) (UniProt P59542); test: Activity at human TAS2R48 expressed in HEK-293T-Galpha16-gustducin44 cells assessed as threshold concentration of compound at which point receptor detects compounds by measuring calcium response by FLIPR assay
T4 sequence (whole entry): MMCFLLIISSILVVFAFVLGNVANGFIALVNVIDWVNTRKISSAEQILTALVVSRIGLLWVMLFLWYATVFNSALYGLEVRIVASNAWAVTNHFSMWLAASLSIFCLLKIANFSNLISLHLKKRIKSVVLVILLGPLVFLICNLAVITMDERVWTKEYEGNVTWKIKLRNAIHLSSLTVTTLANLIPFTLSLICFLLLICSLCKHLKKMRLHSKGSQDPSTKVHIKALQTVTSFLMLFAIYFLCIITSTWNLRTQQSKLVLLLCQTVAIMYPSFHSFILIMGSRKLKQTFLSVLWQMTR

SMILES: CC1=C[C@@H]2[C@@H]3C4C(=C(C)[C@@H]3[C@@]13[C@@H]2[C@@](C)(O)CC[C@H]1[C@H](C)C(=O)O[C@@H]13)[C@H]1OC(=O)[C@@H](C)[C@@H]1CC[C@]4(C)O (some centres undefined)
- Activity [1]: 0.001 mM
- Activity [2]: 0.003 mM
- Activity [3]: 0.01 mM
- Activity [4]: 0.03 mM
